We go through twelve compounds from ChEMBL document CHEMBL1138210, “Discovery of potent, orally-active, and muscle-selective androgen receptor modulators based on an N-aryl-hydroxybicyclohydantoin scaffold” (J Med Chem, 2006).

Experiment [1] addresses T1, Androgen receptor (Rattus norvegicus, UniProt P15207).
T1 sequence (P15207 whole entry): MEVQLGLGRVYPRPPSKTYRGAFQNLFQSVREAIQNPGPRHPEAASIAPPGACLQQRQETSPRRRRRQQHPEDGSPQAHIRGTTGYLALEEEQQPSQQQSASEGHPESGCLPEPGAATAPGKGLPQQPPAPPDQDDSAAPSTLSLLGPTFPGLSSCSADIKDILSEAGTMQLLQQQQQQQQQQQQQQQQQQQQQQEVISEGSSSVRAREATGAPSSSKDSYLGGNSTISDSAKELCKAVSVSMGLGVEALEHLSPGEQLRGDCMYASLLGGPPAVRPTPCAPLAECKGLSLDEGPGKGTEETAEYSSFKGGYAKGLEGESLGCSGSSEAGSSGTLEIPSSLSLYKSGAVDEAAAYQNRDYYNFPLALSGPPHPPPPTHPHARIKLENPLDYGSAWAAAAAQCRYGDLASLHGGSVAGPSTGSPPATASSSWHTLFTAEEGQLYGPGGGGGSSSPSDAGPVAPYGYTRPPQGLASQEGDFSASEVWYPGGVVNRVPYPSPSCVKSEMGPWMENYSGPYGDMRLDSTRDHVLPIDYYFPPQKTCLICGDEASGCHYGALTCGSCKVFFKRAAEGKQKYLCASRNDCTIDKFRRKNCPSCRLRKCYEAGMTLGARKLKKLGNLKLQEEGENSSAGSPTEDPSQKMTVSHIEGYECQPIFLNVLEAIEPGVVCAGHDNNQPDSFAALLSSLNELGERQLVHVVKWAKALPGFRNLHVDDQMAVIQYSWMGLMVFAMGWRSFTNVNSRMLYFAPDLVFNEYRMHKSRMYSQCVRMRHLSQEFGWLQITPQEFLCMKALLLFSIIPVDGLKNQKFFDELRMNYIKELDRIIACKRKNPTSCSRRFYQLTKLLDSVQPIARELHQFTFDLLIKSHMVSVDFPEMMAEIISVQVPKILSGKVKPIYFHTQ
Description: Agonist activity at rat AR transfected in mouse C2C12 cells by luciferase reporter transactivation assay

Experiment [2] addresses T2, Androgen receptor (Homo sapiens, UniProt P10275).
T2 sequence (P10275 whole entry): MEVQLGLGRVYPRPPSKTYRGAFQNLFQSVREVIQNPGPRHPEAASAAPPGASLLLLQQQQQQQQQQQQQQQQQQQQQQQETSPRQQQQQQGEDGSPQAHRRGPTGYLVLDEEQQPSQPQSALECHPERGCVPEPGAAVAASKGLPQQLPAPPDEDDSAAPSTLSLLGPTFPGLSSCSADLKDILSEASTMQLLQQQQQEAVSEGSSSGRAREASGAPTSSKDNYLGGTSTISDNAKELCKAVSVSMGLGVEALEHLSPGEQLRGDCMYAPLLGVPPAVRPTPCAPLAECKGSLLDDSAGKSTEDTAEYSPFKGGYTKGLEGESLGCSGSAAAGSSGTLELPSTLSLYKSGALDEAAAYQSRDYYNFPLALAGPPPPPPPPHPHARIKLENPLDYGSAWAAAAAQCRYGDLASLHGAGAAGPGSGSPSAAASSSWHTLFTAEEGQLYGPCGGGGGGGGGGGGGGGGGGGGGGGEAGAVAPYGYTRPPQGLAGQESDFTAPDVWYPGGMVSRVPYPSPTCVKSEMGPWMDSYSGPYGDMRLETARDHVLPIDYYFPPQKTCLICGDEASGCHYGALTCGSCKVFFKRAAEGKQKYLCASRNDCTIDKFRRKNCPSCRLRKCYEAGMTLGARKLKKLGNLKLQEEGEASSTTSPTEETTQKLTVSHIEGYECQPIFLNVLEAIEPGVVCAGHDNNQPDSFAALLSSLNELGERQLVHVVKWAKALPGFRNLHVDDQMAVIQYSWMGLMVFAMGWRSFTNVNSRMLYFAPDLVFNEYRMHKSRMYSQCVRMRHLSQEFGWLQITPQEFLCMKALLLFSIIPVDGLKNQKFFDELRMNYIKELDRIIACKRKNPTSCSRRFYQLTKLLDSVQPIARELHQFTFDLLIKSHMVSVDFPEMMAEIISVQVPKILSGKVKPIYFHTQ
The experiment in a line: biochemical.
Description: Displacement of [3H]DHT from human AR in MDA453 cells

Experiment [3] concerns the target T1, Androgen receptor. Kind of experiment: Antagonist activity against rat AR transfected in mouse C2C12 cells by luciferase reporter transactivation assay relative to DHT. It counts as functional, cell-based. In general terms: Reporter assays use an easily measured gene product as a stand-in for the process of interest.
Experiment [4] concerns Rattus norvegicus. Kind of experiment: Stimulation of levator ani muscle growth in orally dosed castrated Sprague-Dawley rat. Format: functional. As to conditions: po.
Experiment [5] deals with Rattus norvegicus. The experiment in a line: Stimulation of prostate growth in orally dosed castrated Sprague-Dawley rat. It counts as functional. As to conditions: Prostate gland, po.
In experiment [6] the test system is Rattus norvegicus. The experiment in a line: Inhibition of LH secretion in orally dosed castrated Sprague-Dawley rat. Format: functional. As to conditions: po.
In experiment [7] the test system is Rattus norvegicus. Kind of experiment: Stimulation of levator ani muscle growth in sc dosed castrated Sprague-Dawley rat. Format: functional.
Experiment [8] concerns Rattus norvegicus. The experiment in a line: Stimulation of prostate growth in sc dosed castrated Sprague-Dawley rat. Format: functional. As to conditions: Prostate gland.
Experiment [9] relates to Rattus norvegicus. Kind of experiment: Inhibition of LH secretion in sc dosed castrated Sprague-Dawley rat. Format: functional, organism-based.
Experiment [10] concerns Rattus norvegicus. Kind of experiment: Selectivity for stimulation of levetor ani muscle over suppression of LH secretion in sc dosed castrated Sprague-Dawley rat. Format: functional, Muscle tissue.
The test system of experiment [11] is Rattus norvegicus. Kind of experiment: Selectivity for stimulation of levator ani muscle over prostate in sc dosed castrated Sprague-Dawley rat. Format: functional.

Molecules are shown by their SMILES. Where only a bound is given, the exact number is not on record here.

For the compound `O=C1[C@H]2[C@@H]3CC[C@@H](C3)N2C(=O)N1c1ccc([N+](=O)[O-])c2ccccc12`, in [1], the EC50 came out at 385 nM. Further, the affinity in experiment [2] corresponds to a Ki of 1 nM.

As for `O=C1C2C(O)CCN2C(=O)N1c1ccc([N+](=O)[O-])c2ccccc12` (racemic), the EC50 in [1] turned out to be 4.4 nM. In experiment [2], the inhibition constant Ki – broadly, a dissociation constant, usually derived from enzyme kinetics or from competition with a known ligand – was determined as 3.5 nM.

Turning to `O=C1C2CCCN2C(=O)N1c1ccc([N+](=O)[O-])c2ccccc12` (centres undefined), in [1], the EC50 amounted to 270 nM. Moreover, in experiment [2], the affinity corresponds to a Ki of 1.7 nM.

As to `N#Cc1ccc(N2C(=O)[C@@H]3[C@H](O)CCN3C2=O)c2ccccc12` (single isomer, unassigned), the IC50 – broadly, the concentration that inhibits the measured activity by half – in experiment [3] turned out to be 60 nM. The compound further registered an EC50 in experiment [1] of 1300 nM.

Consider `N#Cc1ccc(N2C(=O)[C@@H]3[C@H](O)CCN3C2=O)c2ccccc12`, for which the ED50 – broadly, the dose that gives a 50% effect, or the effect in half of the subjects – in experiment [4] is 2 mg/kg; in experiment [5] it was greater than 100 mg/kg; in experiment [6] it was 60 mg/kg. In addition, the EC50 in experiment [1] stood at 2.3 nM.

In the case of `O=C1[C@@H]2[C@H](O)CCN2C(=O)N1c1ccc([N+](=O)[O-])c2ccccc12` (single isomer, unassigned), in [1], the EC50 amounted to 281 nM. The compound further came in with a Ki in experiment [2] of 1.5 nM.

Consider `CCC(=O)O[C@H]1CC[C@H]2[C@@H]3CCC4=CC(=O)CC[C@]4(C)[C@H]3CC[C@]12C` [TESTOSTERONE PROPIONATE], for which the ED50 amounted to 0.21 mg/kg in [7] and 0.42 mg/kg in experiment [8]. In addition, the EC50 in experiment [9] was found to be 0.26 mg/kg. The “Ratio ED50” value in experiment [10] is given as 1.2; in [11], 2.

Take `N#Cc1ccc(N2C(=O)C3C(O)CCN3C2=O)c2ccccc12` (racemic): the EC50 in experiment [1] came to 6.3 nM.

With `N#Cc1ccc(N2C(=O)[C@H]3[C@@H]4CC[C@@H](C4)N3C2=O)c2ccccc12`, it took 260 nM to reach half-maximal inhibition in experiment [3] (IC50). For the same compound, the EC50 in experiment [1] was greater than 1000 nM. The compound further showed a Ki in experiment [2] of 24 nM.

As for `O=C1[C@@H]2[C@H](O)CCN2C(=O)N1c1ccc([N+](=O)[O-])c2ccccc12`, in experiment [1], the EC50 is 1.5 nM. The compound further yielded a Ki in experiment [2] of 2.1 nM.

The compound `O=C1[C@H]2C[C@H](O)CN2C(=O)N1c1ccc([N+](=O)[O-])c2ccccc12` returned an EC50 in experiment [1] of 265 nM. The compound further yielded a Ki in [2] of 4.3 nM.

Consider `O=C1[C@H]2C[C@@H](O)CN2C(=O)N1c1ccc([N+](=O)[O-])c2ccccc12`, for which the EC50 in experiment [1] amounted to 320 nM. The Ki in experiment [2] turned out to be 1.5 nM.
